Assay results taken from patent publication US10758534B2 (Vertex Pharmaceuticals Incorporated, priority 2014, dated 2020).

target: T1, F508del (Homo sapiens, UniProt P13569, DEL508-508); experiment: Protocol 2: FRET membrane potential optical assay (VIPR), identification of correction compounds; format: cell-based; details: Table 3; compounds of Table 1 as modulators of CFTR activity; protocol not stated
T1 construct: expressed in transfected cells
Procedure, shortened: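 FRET read-out (CC2-DMPE donor, DiSBAC2(3) voltage-sensitive acceptor) of membrane depolarization on VIPR II. Corrector candidates incubated 16 hrs at 37° C. with NIH3T3 cells expressing F508del; temperature correction at 27° C. as positive control; stimulation by 10 μM forskolin, 20 μM genistein, chloride-free gluconate bath.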

T1 sequence (P13569 with tags, fused parts or gaps DEL508-508): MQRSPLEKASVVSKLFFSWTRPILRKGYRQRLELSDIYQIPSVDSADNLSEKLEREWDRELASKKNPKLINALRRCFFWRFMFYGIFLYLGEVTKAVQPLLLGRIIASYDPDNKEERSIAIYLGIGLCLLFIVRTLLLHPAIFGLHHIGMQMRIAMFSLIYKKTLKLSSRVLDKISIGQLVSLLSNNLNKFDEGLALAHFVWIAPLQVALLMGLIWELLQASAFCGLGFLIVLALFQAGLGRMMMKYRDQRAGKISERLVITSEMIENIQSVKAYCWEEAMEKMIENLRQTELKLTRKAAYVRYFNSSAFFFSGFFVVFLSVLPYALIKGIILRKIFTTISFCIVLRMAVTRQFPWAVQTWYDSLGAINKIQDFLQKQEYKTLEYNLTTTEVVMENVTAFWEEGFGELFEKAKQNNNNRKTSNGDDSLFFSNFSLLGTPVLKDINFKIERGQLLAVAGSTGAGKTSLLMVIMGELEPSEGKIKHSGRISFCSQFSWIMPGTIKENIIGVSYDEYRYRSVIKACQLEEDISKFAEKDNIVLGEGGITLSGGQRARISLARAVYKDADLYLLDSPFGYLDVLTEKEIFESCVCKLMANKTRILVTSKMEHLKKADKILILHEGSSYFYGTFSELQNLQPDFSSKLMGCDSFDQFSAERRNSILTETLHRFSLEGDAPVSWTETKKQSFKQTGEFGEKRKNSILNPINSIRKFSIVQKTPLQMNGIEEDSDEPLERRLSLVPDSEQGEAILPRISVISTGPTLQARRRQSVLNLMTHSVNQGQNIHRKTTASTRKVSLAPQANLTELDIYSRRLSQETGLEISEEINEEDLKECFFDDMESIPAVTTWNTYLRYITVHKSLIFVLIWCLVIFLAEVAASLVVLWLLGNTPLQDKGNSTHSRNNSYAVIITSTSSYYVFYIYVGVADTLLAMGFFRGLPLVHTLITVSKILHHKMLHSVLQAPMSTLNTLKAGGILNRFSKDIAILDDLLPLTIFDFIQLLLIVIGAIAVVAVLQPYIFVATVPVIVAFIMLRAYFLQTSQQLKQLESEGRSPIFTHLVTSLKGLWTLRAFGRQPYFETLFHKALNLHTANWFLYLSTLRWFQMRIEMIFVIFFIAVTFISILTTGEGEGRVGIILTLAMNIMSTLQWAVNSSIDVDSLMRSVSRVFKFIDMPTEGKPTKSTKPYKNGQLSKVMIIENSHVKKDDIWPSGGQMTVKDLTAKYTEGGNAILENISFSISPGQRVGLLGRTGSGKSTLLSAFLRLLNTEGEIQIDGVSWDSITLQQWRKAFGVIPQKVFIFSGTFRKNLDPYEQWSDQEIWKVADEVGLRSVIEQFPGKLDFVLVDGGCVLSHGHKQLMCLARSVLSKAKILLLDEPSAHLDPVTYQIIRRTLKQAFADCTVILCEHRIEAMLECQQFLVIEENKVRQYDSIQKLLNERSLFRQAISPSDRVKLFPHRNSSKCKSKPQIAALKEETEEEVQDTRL

EC30	Structure (SMILES)
+ (“+” means greater than 10 uM)	Cc1ccc(-c2nc(-c3cc(F)cc(OC(C)C)c3)ccc2C(=O)NS(=O)(=O)c2cccc(N)n2)cc1 [Compound 722, N-[(6-amino-2-pyridyl)sulfonyl]-6-(3-fluoro-5-isopropoxy-phenyl)-2-(p-tolyl)pyridine-3-carboxamide]
++ (“++” means between 3 uM and 10 uM)	COC(=O)C(C)Oc1ccc(-c2ccc(C(=O)NS(=O)(=O)c3cccc(N)n3)c(N3[C@H](C)CC[C@@H]3C)n2)cn1 (stereo partly drawn) [Compound 723, methyl 2-[[5-[5-[(6-amino-2-pyridyl)sulfonylcarbamoyl]-6-[(2S,5R)-2,5-dimethylpyrrolidin-1-yl]-2-pyridyl]-2-pyridyl]oxy]propanoate]
+++ (“+++” means <3 uM)	CC(C)Oc1ccc(-c2ccc(C(=O)NS(=O)(=O)c3cccc(N)n3)c(N3CCCC3C(C)C)n2)cn1 (centres unmarked) [Compound 724, N-[(6-amino-2-pyridyl)sulfonyl]-6-(6-isopropoxy-3-pyridyl)-2-(2-isopropylpyrrolidin-1-yl)pyridine-3-carboxamide]
+++ (“+++” means <3 uM)	Cc1cc(C)c(Oc2nc(-c3ccc(F)c(F)c3)ccc2C(=O)NS(=O)(=O)c2cccc(N)n2)c(C)c1 [Compound 725, N-[(6-amino-2-pyridyl)sulfonyl]-6-(3,4-difluorophenyl)-2-(2,4,6-trimethylphenoxy)pyridine-3-carboxamide]
++ (“++” means between 3 uM and 10 uM)	COc1ccc(-c2ccc(C(=O)NS(=O)(=O)c3cccc(N)n3)c(N3[C@H](C)CC[C@@H]3C)n2)cn1 [Compound 726, N-[(6-amino-2-pyridyl)sulfonyl]-2-[(2S,5R)-2,5-dimethylpyrrolidin-1-yl]-6-(6-methoxy-3-pyridyl)pyridine-3-carboxamide]
+ (“+” means greater than 10 uM)	Cc1cc(C)c(Oc2nc(-c3cc(CO)ccc3F)ccc2C(=O)NS(=O)(=O)c2cccc(N)n2)c(C)c1 [Compound 727, N-[(6-amino-2-pyridyl)sulfonyl]-6-[2-fluoro-5-(hydroxymethyl)phenyl]-2-(2,4,6-trimethylphenoxy)pyridine-3-carboxamide]
++ (“++” means between 3 uM and 10 uM)	CC(C)Oc1ccc(-c2ccc(C(=O)NS(=O)(=O)c3cccc(N)n3)c(N3CCC4(CCO4)CC3)n2)cn1 [Compound 729, N-[(6-amino-2-pyridyl)sulfonyl]-6-(6-isopropoxy-3-pyridyl)-2-(3-oxa-7-azaspiro[3.5]nonan-7-yl)pyridine-3-carboxamide]

Structure (SMILES)	EC30
COC[C@@H]1CCCN1c1nc(-c2cc(F)cc(OCC(C)C)c2)ccc1C(=O)NS(=O)(=O)c1cccc(N)n1 [Compound 719, N-[(6-amino-2-pyridyl)sulfonyl]-6-(3-fluoro-5-isobutoxy-phenyl)-2-[(2S)-2-(methoxymethyl)pyrrolidin-1-yl]pyridine-3-carboxamide]	+++ (“+++” means <3 uM)
CC(C)COc1cc(F)cc(-c2ccc(C(=O)NS(=O)(=O)c3cccc(N)n3)c(N3CCC(C)C3C)n2)c1 (centres unmarked) [Compound 720, N-[(6-amino-2-pyridyl)sulfonyl]-2-(2,3-dimethylpyrrolidin-1-yl)-6-(3-fluoro-5-isobutoxy-phenyl)pyridine-3-carboxamide]	+++ (“+++” means <3 uM)
CC(C)COc1ccc(F)c(-c2ccc(C(=O)NS(=O)(=O)c3ccc[nH]c3=O)c(N3[C@H](C)CC[C@@H]3C)n2)c1 [Compound 721, 2-[(2S,5R)-2,5-dimethylpyrrolidin-1-yl]-6-(2-fluoro-5-isobutoxy-phenyl)-N-[(2-oxo-1H-pyridin-3-yl)sulfonyl]pyridine-3-carboxamide]	++ (“++” means between 3 uM and 10 uM)
CC(C)COc1cc(F)cc(-c2ccc(C(=O)NS(=O)(=O)c3ccn[nH]3)c(N3CCC(F)CC3)n2)c1 [Compound 728, 6-(3-fluoro-5-isobutoxy-phenyl)-2-(4-fluoro-1-piperidyl)-N-(1H-pyrazol-5-ylsulfonyl)pyridine-3-carboxamide]	++ (“++” means between 3 uM and 10 uM)
